# Patent US20150105252A1, “SUBSTITUTED PYRAZOLES AS HERBICIDES” (E I DU PONT DE NEMOURS AND COMPANY, priority 2013, published 2015)
# How the values were obtained:
# windgrass = experiment: Test D postemergence; assay type: in vivo, Apera spica-venti; conditions: scale 0 to 100
# Procedure, shortened: (§1)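 Visual injury scored 0–100 (0 none, 100 complete control) against controls 14–21 days after treatment in a controlled growth environment. Chemicals were formulated in a non-phytotoxic solvent mixture containing surfactant, applied to silt loam soil preemergence or to 1- to 4-leaf plants postemergence.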
# wheat, winter = experiment: Test D postemergence; assay type: in vivo, Triticum aestivum; conditions: scale 0 to 100
# Procedure, shortened: as §1
# wheat, spring = experiment: Test D postemergence; assay type: in vivo, Triticum aestivum; conditions: scale 0 to 100
# Procedure, shortened: as §1
# oat, wild [1] = experiment: Test D preemergence; assay type: in vivo, Avena fatua; conditions: for Plant response rating, Oat, Wild: Preemergence, scale 0 to 100
# Excerpt: (§2) Seeds of plant species selected from bluegrass (annual bluegrass, Poa annua), blackgrass (Alopecurus myosuroides), canarygrass (littleseed canarygrass, Phalaris minor), chickweed (common chickweed, Stellaria media), galium (catchweed bedstraw, Galium aparine), bromegrass, downy (downy bromegrass, Bromus tectorum), field poppy (Papaver rhoeas), field violet (Viola arvensis), foxtail, green (green foxtail, Setaria viridis), deadnettle (henbit deadnettle, Lamium amplexicaule), ryegrass, Italian (Italian ryegrass, Lolium multiflorum), kochia (Kochia scoparia), lambsquarters (Chenopodium album), oilseed rape (Brassica napus), pigweed (redroot pigweed, Amaranthus retroflexus), chamomile (scentless chamomile, Matricaria inodora), speedwell (bird's-eye speedwell, Veronica persica), barley, spring (spring barley, Hordeum vulgare), wheat, spring (spring wheat, Triticum aestivum), buckwheat, wild (wild buckwheat, Polygonum convolvulus), mustard, wild (wild mustard, Sinapis arvensis), oat, wild (wild oat, Avena fatua), radish, wild (wild radish, Raphanus raphanistrum), windgrass (Apera spica-venti), Russian thistle (Salsola kali), barley, winter (winter barley, Hordeum vulgare), and wheat, winter (winter wheat, Triticum aestivum) were planted into a silt loam soil and treated preemergence with test chemicals formulated in a non-phytotoxic solvent mixture which included a surfactant.
# (§3) At the same time, these species were planted in pots containing Redi-Earth® planting medium (Scotts Company, 14111 Scottslawn Road, Marysville, Ohio 43041) comprising spaghnum peat moss, vermiculite, wetting agent and starter nutrients and treated with postemergence applications of the test chemicals formulated in the same manner. Plants ranged in height from 2 to 18 cm (1- to 4-leaf stage). Treated plants and controls were maintained in a controlled growth environment for 14 to 21 days after which time all species were compared to controls and visually evaluated. Plant response ratings, summarized in Table D, are based on a scale of 0 to 100 where 0 is no effect and 100 is complete control. A dash (-) response means no test result.
# buckwheat, wild = experiment: Test D postemergence; assay type: in vivo, Polygonum convolvulus; conditions: scale 0 to 100
# Excerpt: as §2, §3
# field violet = experiment: Test D postemergence; assay type: in vivo, Viola arvensis; conditions: scale 0 to 100
# Procedure, shortened: as §1
# foxtail, green [2] = experiment: Test D postemergence; assay type: in vivo, Setaria viridis; conditions: scale 0 to 100
# Procedure, shortened: as §1
# mustard, wild = experiment: Test D preemergence; assay type: in vivo, Sinapis arvensis; conditions: Preemergence, scale 0 to 100
# Excerpt: as §2, §3
# oat, wild [3] = experiment: Test D postemergence; assay type: in vivo, Avena fatua; conditions: scale 0 to 100
# Procedure, shortened: as §1
# deadnettle = experiment: Test D postemergence; assay type: in vivo, Lamium amplexicaule; conditions: scale 0 to 100
# Excerpt: as §2, §3
# foxtail, green [4] = experiment: Test D preemergence; assay type: in vivo, Setaria viridis; conditions: for Plant response rating, Foxtail, Green: Preemergence, scale 0 to 100
# Excerpt: as §2, §3
# [5] = 16 g ai/ha, taken as preemergence
smiles,measurement,setting,value
CCc1cc(C(=O)NC2CC2)nn1Cc1ccnc(C(F)(F)F)c1 [Compound 76],"Plant response rating, Windgrass","windgrass; Postemergence, 16 g ai/ha",5
same,Windgrass plant response rating,"windgrass; Postemergence, 31 g ai/ha",5
same,Windgrass plant response rating,"windgrass; Postemergence, 125 g ai/ha",10
same,Windgrass plant response rating,"windgrass; Postemergence, 250 g ai/ha",15
same,Windgrass plant response rating,"windgrass; postemergence, 62 g ai/ha",10
same,"Plant response rating, Wheat, Winter","wheat, winter; Postemergence, 16 g ai/ha",0
same,"Wheat, Winter plant response rating","wheat, winter; Postemergence, 31 g ai/ha",0
same,"Wheat, Winter plant response rating","wheat, winter; Postemergence, 125 g ai/ha",15
same,"Wheat, Winter plant response rating","wheat, winter; Postemergence, 250 g ai/ha",20
same,"Wheat, Winter plant response rating","wheat, winter; postemergence, 62 g ai/ha",10
same,"Plant response rating, Wheat, Spring","wheat, spring; Postemergence, 16 g ai/ha",0
same,"Wheat, Spring plant response rating","wheat, spring; Postemergence, 31 g ai/ha",5
same,"Wheat, Spring plant response rating","wheat, spring; Postemergence, 125 g ai/ha",5
same,"Wheat, Spring plant response rating","wheat, spring; Postemergence, 250 g ai/ha",10
same,"Wheat, Spring plant response rating","wheat, spring; postemergence, 62 g ai/ha",5
same,"Plant response rating (scale 0 to 100), Oat, Wild","oat, wild [1]; [5]",0
same,"Plant response rating, Oat, Wild","oat, wild [1]; 31 g ai/ha",10
same,"Plant response rating, Oat, Wild","oat, wild [1]; 62 g ai/ha",35
same,"Plant response rating, Oat, Wild","oat, wild [1]; 125 g ai/ha",90
same,"Plant response rating, Oat, Wild","oat, wild [1]; 250 g ai/ha",100
same,"Plant response rating, Buckwheat, Wild","buckwheat, wild; Postemergence, 16 g ai/ha",50
same,"Buckwheat, Wild plant response rating","buckwheat, wild; Postemergence, 31 g ai/ha",55
same,"Buckwheat, Wild plant response rating","buckwheat, wild; Postemergence, 125 g ai/ha",60
same,"Buckwheat, Wild plant response rating","buckwheat, wild; Postemergence, 250 g ai/ha",100
same,"Buckwheat, Wild plant response rating","buckwheat, wild; postemergence, 62 g ai/ha",50
same,"Plant response rating, Field Violet","field violet; Postemergence, 16 g ai/ha",10
same,Field Violet plant response rating,"field violet; Postemergence, 31 g ai/ha",15
same,Field Violet plant response rating,"field violet; Postemergence, 125 g ai/ha",70
same,Field Violet plant response rating,"field violet; Postemergence, 250 g ai/ha",85
same,Field Violet plant response rating,"field violet; postemergence, 62 g ai/ha",20
same,"Plant response rating, Foxtail, Green","foxtail, green [2]; Postemergence, 16 g ai/ha",5
same,"Foxtail, Green plant response rating","foxtail, green [2]; Postemergence, 31 g ai/ha",35
same,"Foxtail, Green plant response rating","foxtail, green [2]; Postemergence, 125 g ai/ha",55
same,"Foxtail, Green plant response rating","foxtail, green [2]; Postemergence, 250 g ai/ha",85
same,"Foxtail, Green plant response rating","foxtail, green [2]; postemergence, 62 g ai/ha",15
same,"Plant response rating, Mustard, Wild","mustard, wild; 31 g ai/ha",60
same,"Plant response rating, Mustard, Wild","mustard, wild; 62 g ai/ha",100
same,"Plant response rating, Mustard, Wild","mustard, wild; 125 g ai/ha",100
same,"Plant response rating, Mustard, Wild","mustard, wild; 250 g ai/ha",100
same,"Plant response rating, Oat, Wild","oat, wild [3]; Postemergence, 16 g ai/ha",5
same,"Oat, Wild plant response rating","oat, wild [3]; Postemergence, 31 g ai/ha",5
same,"Oat, Wild plant response rating","oat, wild [3]; Postemergence, 125 g ai/ha",10
same,"Oat, Wild plant response rating","oat, wild [3]; Postemergence, 250 g ai/ha",15
same,"Oat, Wild plant response rating","oat, wild [3]; postemergence, 62 g ai/ha",10
same,"Plant response rating, Deadnettle","deadnettle; Postemergence, 16 g ai/ha",15
same,Deadnettle plant response rating,"deadnettle; Postemergence, 31 g ai/ha",25
same,Deadnettle plant response rating,"deadnettle; Postemergence, 125 g ai/ha",50
same,Deadnettle plant response rating,"deadnettle; Postemergence, 250 g ai/ha",70
same,Deadnettle plant response rating,"deadnettle; postemergence, 62 g ai/ha",40
same,"Plant response rating (scale 0 to 100), Foxtail, Green","foxtail, green [4]; [5]",25
same,"Plant response rating, Foxtail, Green","foxtail, green [4]; 31 g ai/ha",50
same,"Plant response rating, Foxtail, Green","foxtail, green [4]; 62 g ai/ha",100
same,"Plant response rating, Foxtail, Green","foxtail, green [4]; 125 g ai/ha",100
same,"Plant response rating, Foxtail, Green","foxtail, green [4]; 250 g ai/ha",100
CCc1cc(C(=O)NCC(F)(F)F)nn1Cc1ccnc(SC(F)(F)F)c1 [Compound 214],Windgrass plant response rating,"windgrass; Postemergence, 31 g ai/ha",20
same,Windgrass plant response rating,"windgrass; Postemergence, 125 g ai/ha",30
same,Windgrass plant response rating,"windgrass; Postemergence, 250 g ai/ha",40
same,Windgrass plant response rating,"windgrass; postemergence, 62 g ai/ha",20
same,"Wheat, Winter plant response rating","wheat, winter; Postemergence, 31 g ai/ha",15
same,"Wheat, Winter plant response rating","wheat, winter; Postemergence, 125 g ai/ha",20
same,"Wheat, Winter plant response rating","wheat, winter; Postemergence, 250 g ai/ha",40
same,"Wheat, Winter plant response rating","wheat, winter; postemergence, 62 g ai/ha",15
same,"Wheat, Spring plant response rating","wheat, spring; Postemergence, 31 g ai/ha",15
same,"Wheat, Spring plant response rating","wheat, spring; Postemergence, 125 g ai/ha",15
same,"Wheat, Spring plant response rating","wheat, spring; Postemergence, 250 g ai/ha",20
same,"Wheat, Spring plant response rating","wheat, spring; postemergence, 62 g ai/ha",15
same,"Plant response rating, Oat, Wild","oat, wild [1]; 62 g ai/ha",20
same,"Plant response rating, Oat, Wild","oat, wild [1]; 125 g ai/ha",70
same,"Plant response rating, Oat, Wild","oat, wild [1]; 250 g ai/ha",95
same,"Buckwheat, Wild plant response rating","buckwheat, wild; Postemergence, 31 g ai/ha",70
same,"Buckwheat, Wild plant response rating","buckwheat, wild; Postemergence, 125 g ai/ha",70
same,"Buckwheat, Wild plant response rating","buckwheat, wild; Postemergence, 250 g ai/ha",80
same,"Buckwheat, Wild plant response rating","buckwheat, wild; postemergence, 62 g ai/ha",70
same,Field Violet plant response rating,"field violet; Postemergence, 31 g ai/ha",100
same,Field Violet plant response rating,"field violet; Postemergence, 125 g ai/ha",100
same,Field Violet plant response rating,"field violet; Postemergence, 250 g ai/ha",100
same,Field Violet plant response rating,"field violet; postemergence, 62 g ai/ha",100
same,"Foxtail, Green plant response rating","foxtail, green [2]; Postemergence, 31 g ai/ha",15
same,"Foxtail, Green plant response rating","foxtail, green [2]; Postemergence, 125 g ai/ha",35
same,"Foxtail, Green plant response rating","foxtail, green [2]; Postemergence, 250 g ai/ha",60
same,"Foxtail, Green plant response rating","foxtail, green [2]; postemergence, 62 g ai/ha",15
same,"Plant response rating, Mustard, Wild","mustard, wild; 62 g ai/ha",100
same,"Plant response rating, Mustard, Wild","mustard, wild; 125 g ai/ha",100
same,"Plant response rating, Mustard, Wild","mustard, wild; 250 g ai/ha",100
same,"Oat, Wild plant response rating","oat, wild [3]; Postemergence, 31 g ai/ha",15
same,"Oat, Wild plant response rating","oat, wild [3]; Postemergence, 125 g ai/ha",20
same,"Oat, Wild plant response rating","oat, wild [3]; Postemergence, 250 g ai/ha",40
same,"Oat, Wild plant response rating","oat, wild [3]; postemergence, 62 g ai/ha",15
same,Deadnettle plant response rating,"deadnettle; Postemergence, 31 g ai/ha",50
same,Deadnettle plant response rating,"deadnettle; Postemergence, 125 g ai/ha",60
same,Deadnettle plant response rating,"deadnettle; Postemergence, 250 g ai/ha",70
same,Deadnettle plant response rating,"deadnettle; postemergence, 62 g ai/ha",50
same,"Plant response rating, Foxtail, Green","foxtail, green [4]; 62 g ai/ha",100
same,"Plant response rating, Foxtail, Green","foxtail, green [4]; 125 g ai/ha",100
same,"Plant response rating, Foxtail, Green","foxtail, green [4]; 250 g ai/ha",100
